Assay results published in patent US20250115571A1, “OXOPIPERAZINE DERIVATIVES” (Inthera Bioscience AG, priority 2017, published 2025).

Experiments:
[1] = test system: MKN45 human gastric adenocarcinoma cells; assay: Cell-derived xenograft mouse model for gastric cancer (MKN45 CDX); format: in vivo; conditions: 6 mg/kg, QD, p.o.
Experimental: Female BALB/c nude mice (8-9 weeks of age) were injected with MKN45 human gastric adenocarcinoma cells. The cells were inoculated subcutaneously into the left flank of 48 mice. When tumors reached a mean volume of approximately 103 mm^3, mice were randomly assigned to eight treatment groups of each six mice (TABLE 16). Body weights were measured three times weekly prior to the initiation of dosing and daily thereafter. Tumor burden was assessed by caliper measurement twice weekly. Dosing breaks were applied when tolerability issues arose (body weight loss>10%). The study was terminated four weeks post first dosing. The experiment was performed in the Crown Bioscience Ltd. (Beijing) testing facility (Ground Floor, Light Muller Building, Changping Sector of Zhongguancun Scientific Park, No. 21 Huoju Road, Changping District, Beijing, CHN).

[2] = test system: hormone-refractory DU-145 human prostate cancer cells; assay: Cell-derived xenograft mouse model for prostate cancer (DU-145 CDX); format: in vivo; conditions: 3 mg/kg, p.o. QD × 4 weeks
Experimental: Male BALB/c nude mice (7-9 weeks of age) were injected with hormone-refractory DU-145 human prostate cancer cells. The cells were inoculated subcutaneously into the left flank of 48 mice. When tumors reached a mean volume of approximately 105 mm^3, mice were randomly assigned to eight treatment groups of each six mice (TABLE 12). Body weights were measured three times weekly prior to the initiation of dosing and daily thereafter. Tumor burden was assessed by caliper measurement three times weekly. Dosing breaks were applied when tolerability issues arose (body weight loss>10%). The study was terminated 4 weeks post first dosing. The experiment was performed in the Crown Bioscience Ltd. (Beijing) testing facility (Ground Floor, Light Muller Building, Changping Sector of Zhongguancun Scientific Park, No. 21 Huoju Road, Changping District, Beijing, CHIN).

PC3 = assay: 9-day colony survival assay (CFA); format: cell-based; conditions: Homo sapiens, PC-3, 216 h, PC3 (prostate), read-out: GI50 (50% growth inhibition)
A549 = assay: 9-day colony survival assay (CFA); format: cell-based; conditions: Homo sapiens, 216 h, A549 (lung), read-out: GI50 (50% growth inhibition)
CaSki = assay: 9-day colony survival assay (CFA); format: cell-based; conditions: Homo sapiens, Ca-Ski, 216 h, CaSki (cervix), read-out: GI50 (50% growth inhibition)
Excerpt: Cell culture. CaSki cells (cervical cancer) were obtained from CLS GmbH, Eppelheim, Germany (cat #300145) and subcultured in ready-to-use RPMI1640 Media (CLS #820700) after addition of “Antibiotic Antimycotic Solution” (Sigma-Aldrich, St Louis, USA) at 1:100 dilution. The cells were expanded, and aliquots kept frozen in liquid nitrogen according to manufacturer's instructions; tested for mycoplasma contamination and genotyped (Microsynth AG, Balgach, Switzerland). Once thawed, aliquots were passaged every second or third day at a seed density of 20′000 cells/cm^2; and used for a maximum of twenty passages. For passaging, cell culture flasks were rinsed twice with Ca++/Mg++-free Phosphate-Buffered Saline (DPBS, CLS #860015) and incubated with Accutase (CLS #830100) for 15 min at 37° C. Cells were resuspended in a four-fold volume of ready-to-use RPMI, centrifuged at 300 g for ten minutes, the supernatant discarded and the cells resuspended in ready-to-use RPMI1640 by pipetting up and down five times with a serological pipette. Cell density was determined with a Via-1 Cassette (Chemometec, Allerod, Denmark) on a Nucleocounter NC 3000 (Chemometec). Where not stated, consumables and chemicals were purchased from well-known suppliers.
Preparation of the cells for CFA. Cell culture flasks were rinsed twice with DPBS and incubated with Accutase for 15 min at 37° C. Cells were resuspended in a four-fold volume of ready-to use RPMI, centrifuged at 300 g for ten minutes, the supernatant discarded and the cells resuspended in ready-to-use RPMI1640 by pipetting up and down ten times with a serological pipette. Cell density was determined with a Via-1 Cassette on a Nucleocounter NC 3000. The required amount of cells was first diluted 1:10 in ready-to-use RPMI; cells pipetted five times up-down with a serological pipette; and the 1:10 solution added to the final volume needed for the whole assay setup. Cells were mixed again by pipetting up and down twenty times with a serological pipette. The cell density used for the experiment was of 140 cells/ml.
Seeding. Cells were seeded row-wise in 12-well plates, while triplicates were treated column-wise (i.e. all the first rows were seeded first, then the second rows, and finally the third rows). One and a half ml cell suspension solution (a total of 210 cells) were added per well.
Treatment. Compound stock solutions were prepared at a concentration of 30 mM in 50% DMSO/50% water; and diluted in the same solution so that the volume added to the wells was of 2.5 μl and the final DMSO well concentration of 0.08%. Untreated cells (negative controls) were incubated in a) medium only; and b) 0.08% DMSO. […] The plates were swirled gently after addition of the compounds and the cells incubated for nine days at 37° C. Culture incubation solutions were replaced after five days.
Staining. Colonies were washed twice with ice-cold DPBS and fixed on ice with 1 ml ice-cold 10% methanol solution for 30 min. The methanol solution was removed and colonies incubated with 0.1% Crystal Violet/DBPS for 20 min at room temperature. The wells were rinsed consecutively with 1.5, 1, and 0.5 ml water at room temperature and let dry.
Destaining and data evaluation. […] Absorbance was measured at 600 nm with a SpectraMax M2e reader (Molecular Devices, Sunnyvale, CA, USA). Percentage of colony formation was calculated from the average of the well triplicates compared to the untreated DMSO controls after subtraction of blank values. […]

HCT116 = assay: 9-day colony survival assay (CFA); format: cell-based; conditions: Homo sapiens, HCT-116, 216 h, HCT116 (colon), read-out: GI50 (50% growth inhibition)

CC(C)C[C@@H]1NCCN([C@@H](CC(C)C)C(=O)N2CCC3(C[C@@H]2C)OCC(CN2CCC(C)CC2)CO3)C1=O (stereo partly drawn) [Compound 253, (3S)-1-[(2S)-4-methyl-1-oxo-1-[(3s,6s,8S)-8-methyl-3-[(4-methylpiperidin-1-yl)methyl]-1,5-dioxa-9-azaspiro[5.5]undec-an-9-yl]pentan-2-yl]-3-(2-methylpropyl)piper-azin-2-one (^≠), isomer Z]
Tumor Size day 29 ([1]; MKN45 CDX, female BALB/c nude mice, Mean ± SEM): 506.5 ± 71.0 mm^3 | T/C ([1]; day 29, tumor-to-control ratio (volume/volume)): 42.6% | Tumor Size day 35 (Mean ± SEM) [2]: 480 ± 49 mm^3 | T/C (tumor-to-control ratio, volume/volume) ([2]; day 35): 69.3% | GI50 (PC3): 4 nM | GI50 (A549): 7 nM | GI50 (CaSki): 4.5 nM | GI50 (HCT116): 2 nM
